Experiments:
[1] = xn = mol fraction of the nth substance listed; conditions: 308.15 K, 101 kPa, Liquid, Vibrating tube method
[2] = molar heat capacity at constant pressure; xn = mol fraction of the nth substance listed; conditions: 101 kPa, Liquid, Small sample (50 mg) DSC

Cc1ccccc1Cl [2-chlorotoluene] + C1CCOCC1
[1]
Conditions | mass density [kg/m3]
x1 = 0.1156 | 896.57
x1 = 0.1765 | 910.57
x1 = 0.2342 | 923.48
x1 = 0.2765 | 932.73
x1 = 0.3305 | 944.29
x1 = 0.3716 | 952.9
x1 = 0.4235 | 963.56
x1 = 0.4721 | 973.33
x1 = 0.5216 | 983.08
x1 = 0.5803 | 994.39
x1 = 0.6317 | 1004.1
x1 = 0.6796 | 1012.9
x1 = 0.7216 | 1020.5
x1 = 0.7737 | 1029.7
x1 = 0.8219 | 1038.1
x1 = 0.8753 | 1047.2
x1 = 0.9064 | 1052.4
x1 = 0.9325 | 1056.7

molar heat capacity at constant pressure [J/K/mol], [2]
Conditions | 298.15 K | 303.15 K | 308.15 K
x1 = 0.0897 | 152.82 | 154.4 | 156.2
x1 = 0.1165 | 153.77 | 155.35 | 157.14
x1 = 0.1429 | 154.71 | 156.28 | 158.07
x1 = 0.1929 | 156.46 | 158.04 | 159.8
x1 = 0.2376 | 158.01 | 159.59 | 161.34
x1 = 0.2892 | 159.77 | 161.35 | 163.09
x1 = 0.3218 | 160.85 | 162.44 | 164.17
x1 = 0.3519 | 161.84 | 163.43 | 165.15
x1 = 0.4019 | 163.44 | 165.03 | 166.75
x1 = 0.4427 | 164.71 | 166.31 | 168.01
x1 = 0.4817 | 165.88 | 167.49 | 169.19
x1 = 0.5216 | 167.05 | 168.66 | 170.35
x1 = 0.5549 | 168 | 169.62 | 171.3
x1 = 0.5936 | 169.07 | 170.69 | 172.36
x1 = 0.6215 | 169.81 | 171.44 | 173.11
x1 = 0.6518 | 170.6 | 172.23 | 173.9
x1 = 0.6902 | 171.57 | 173.21 | 174.87
x1 = 0.7205 | 172.31 | 173.96 | 175.62
x1 = 0.7515 | 173.04 | 174.7 | 176.36
x1 = 0.7931 | 173.99 | 175.66 | 177.32
x1 = 0.8156 | 174.49 | 176.17 | 177.83
x1 = 0.8472 | 175.18 | 176.87 | 178.52
x1 = 0.8831 | 175.93 | 177.63 | 179.3
x1 = 0.9146 | 176.56 | 178.29 | 179.96

Reference: the NIST ThermoML archive (doi:10.1021/je400722h)
